Activity calls are given as the source filed them. The calls are words filed in the database; no cut-off is given here.
What was measured:
MDA-MB-231 [1] = experiment: Induction of cell cycle arrest in human MDA-MB-231 cells assessed as accumulation of cells at sub-G1 phase at 1 uM incubated for 24 hrs by propidium iodide staining based flow cytometry analysis (reference value: 0.57%); format: functional
MDA-MB-231 [2] = experiment: Induction of cell cycle arrest in human MDA-MB-231 cells assessed as accumulation of cells at G2/M phase at 4 uM incubated for 24 hrs by propidium iodide staining based flow cytometry analysis (reference value: 17.58%); format: functional
Quadruplex DNA [3] = experiment: Stabilization of G4 quadruplex telomeric22 DNA (unknown origin) assessed as change in melting temperature by circular dichroism melting assay
MDA-MB-231 [4] = experiment: Induction of autophagy in human MDA-MB-231 cells assessed as conversion of LC3B-I to LC3B-II at 1 to 4 uM incubated for 24 hrs by Western blot analysis; format: functional, cell-based; conditions: dose 1-4 µM
MDA-MB-231 [5] = experiment: Induction of apoptosis in human MDA-MB-231 cells assessed as PARP cleavage at 1 to 4 uM incubated for 24 hrs by Western blot analysis; format: functional, cell-based; conditions: dose 1-4 µM
Quadruplex DNA [6] = experiment: Stabilization of c-MYC G4 quadruplex DNA (unknown origin) assessed as change in temperature incubated for 2 hrs in presence of telomer by FRET assay; format: nucleic-acid assay
MDA-MB-231 [7] = experiment: Induction of cell cycle arrest in human MDA-MB-231 cells assessed as accumulation of cells at sub-G1 phase at 2 uM incubated for 24 hrs by propidium iodide staining based flow cytometry analysis (reference value: 0.57%); format: functional
MDA-MB-231 [8] = experiment: Cytotoxicity against human MDA-MB-231 cells assessed as inhibition of cell growth at 0 to 20 uM incubated for 48 hrs by CCK-8 assay; format: functional, cell-based; conditions: MDA-MB-231, 48 h
MDA-MB-231 [9] = experiment: Induction of cell cycle arrest in human MDA-MB-231 cells assessed as accumulation of cells at G0/G1 phase at 2 uM incubated for 24 hrs by propidium iodide staining based flow cytometry analysis (reference value: 66.35%); format: functional
Quadruplex DNA [10] = experiment: Stabilization of c-MYC G4 quadruplex DNA Pu22 (unknown origin) assessed as temperature at which 50% protein unfold by circular dichroism melting assay; format: nucleic-acid assay
[11] = Toxicity in BALB/c mouse xenografted with human MDA-MB-231 cells assessed as pain at 5 mg/kg, ip administered every other day for 20 days and measured every 4 days; format: organism-based; conditions: in vivo, 480 h, time 20 day
MDA-MB-231 [12] = experiment: Upregulation of phosphorylated ATM in human MDA-MB-231 cells at 1 to 4 uM measured after 24 hrs by Western blot analysis; format: functional, cell-based; conditions: dose 1-4 µM
MDA-MB-231 [13] = experiment: Induction of cell cycle arrest in human MDA-MB-231 cells assessed as downregulation of Cdc2 expression at 1 to 4 uM incubated for 24 hrs by Western blot analysis; format: functional, cell-based; conditions: dose 1-4 µM
MDA-MB-231 [14] = experiment: Inhibition of colony formation in human MDA-MB-231 cells assessed as reduction in number of visible cell colonies at 0.1 to 0.4 uM measured after 14 days by crystal violet based staining analysis; format: functional; conditions: dose 0.1-0.4 µM, time 14.0 day
MDA-MB-231 [15] = experiment: Induction of autophagy in human MDA-MB-231 cells assessed as increase in fluorescence intensity of LC3B in cytoplasm at 4 uM measured after 24 hrs by immunofluorescence based analysis; format: functional, cell-based
MDA-MB-231 [16] = experiment: Cytotoxicity against human MDA-MB-231 cells assessed as reduction in cell viability at 0 to 20 uM by CCK-8 assay; format: functional, cell-based; conditions: dose 0-20 µM, time 24-72 hrs, TDE = time-dependent effect
MDA-MB-231 [17] = experiment: Induction of cell cycle arrest in human MDA-MB-231 cells assessed as accumulation of cells at G0/G1 phase at 4 uM incubated for 24 hrs by propidium iodide staining based flow cytometry analysis (reference value: 66.35%); format: functional
MDA-MB-231 [18] = experiment: Antitumor activity against human MDA-MB-231 cells xenografted in BALB/c nude mouse assessed as reduction in tumor weight at 5 mg/kg, ip administered every other day for 20 days and measured every 4 days; format: functional, organism-based; conditions: time 20.0 day
MDA-MB-231 [19] = experiment: Induction of cell cycle arrest in human MDA-MB-231 cells assessed as upregulation of p21 accumulation at 1 to 4 uM measured after 24 hrs by Western blot analysis; format: functional, cell-based; conditions: dose 1-4 µM
MDA-MB-231 [20] = experiment: Induction of apoptosis in human MDA-MB-231 cells assessed as increase in early apoptotic cells at 1 to 4 uM incubated for 24 hrs by Annexin-V FITC/PI double staining based flow cytometry analysis; format: functional, cell-based; conditions: dose 1-4 µM
MDA-MB-231 [21] = experiment: Upregulation of phosphorylated Chk2 in human MDA-MB-231 cells at 1 to 4 uM measured after 24 hrs by Western blot analysis; format: functional, cell-based; conditions: dose 1-4 µM
[22] = Cytotoxicity against human MCF-10A cells assessed as reduction in cell viability by CCK8 assay; format: toxicity, cell-based
MDA-MB-231 [23] = experiment: Induction of autophagy in human MDA-MB-231 cells assessed as aggregation of p62 protein expression level at 1 to 4 uM incubated for 24 hrs by Western blot analysis; format: functional, cell-based; conditions: dose 1-4 µM
MDA-MB-231 [24] = experiment: Inhibition of cell migration in human MDA-MB-231 cells assessed as reduction in migration at 1 to 4 uM measured after 24 to 48 hrs by wound healing assay; format: functional, cell-based; conditions: dose 1-4 µM, time 24-48 hrs
dsDNA = experiment: Stabilization of duplex DNA (unknown origin) assessed as change in melting temperature by circular dichroism melting assay
MDA-MB-231 [25] = experiment: Induction of apoptosis in human MDA-MB-231 cells assessed as caspase-9 cleavage at 1 to 4 uM incubated for 24 hrs by Western blot analysis; format: functional, cell-based; conditions: dose 1-4 µM
MDA-MB-231 [26] = experiment: Inhibition of cell migration in human MDA-MB-231 cells assessed as reduction in migration at 1 to 4 uM measured after 24 hrs by transwell migration assay; format: functional, cell-based; conditions: dose 1-4 µM
[27] = Toxicity in BALB/c mouse xenografted with human MDA-MB-231 cells assessed as effect on spleen at 5 mg/kg, ip administered every other day for 20 days and measured every 4 days; format: organism-based; conditions: in vivo, 480 h, time 20 day
HeLa = experiment: Cytotoxicity against human HeLa cells assessed as reduction in cell viability by CCK8 assay; format: functional, cell-based
MDA-MB-231 [28] = experiment: Induction of cell cycle arrest in human MDA-MB-231 cells assessed as accumulation of cells at S phase at 2 uM incubated for 24 hrs by propidium iodide staining based flow cytometry analysis (reference value: 15.50%); format: functional
[29] = Toxicity in BALB/c mouse xenografted with human MDA-MB-231 cells assessed as effect on liver at 5 mg/kg, ip administered every other day for 20 days and measured every 4 days; format: organism-based; conditions: in vivo, 480 h, time 20 day
HCC1806 = experiment: Cytotoxicity against human HCC1806 cells assessed as reduction in cell viability by CCK8 assay; format: functional, cell-based

CN1CCN(c2ccc(-c3nc(-c4ccc(-c5ccc(C(F)(F)F)cc5)cc4)[nH]c3-c3ccc(N4CCN(C)CC4)cc3)cc2)CC1
Activity (MDA-MB-231 [1]): 0.66%
Activity (MDA-MB-231 [2]): 30.7%
ΔTm (Quadruplex DNA [3]): 0 °C
Activity (MDA-MB-231 [4]): Active
Activity (MDA-MB-231 [5]): Active
Activity (Quadruplex DNA [6]): Active
Activity (MDA-MB-231 [7]): 0.68%
IC50 (MDA-MB-231 [8]): 870 nM
Activity (MDA-MB-231 [9]): 76.42%
T (Quadruplex DNA [10]): 34.6 °C
Activity [11]: Non-Toxic
Activity (MDA-MB-231 [12]): Active
Activity (MDA-MB-231 [13]): Active
inhibition (MDA-MB-231 [14]): Active
Activity (MDA-MB-231 [15]): Active
Activity (MDA-MB-231 [16]): Tde
Activity (MDA-MB-231 [17]): 18.23%
Activity (MDA-MB-231 [18]): Active
Activity (MDA-MB-231 [19]): Active
Activity (MDA-MB-231 [20]): Active
Activity (MDA-MB-231 [21]): Active
IC50 [22]: 8.77 µM
Activity (MDA-MB-231 [23]): Active
inhibition (MDA-MB-231 [24]): Active
ΔTm (dsDNA): 0 °C
Activity (MDA-MB-231 [25]): Active
inhibition (MDA-MB-231 [26]): Active
Activity [27]: Non-Toxic
IC50 (HeLa): 2690 nM
Activity (MDA-MB-231 [28]): 11.56%
Activity [29]: Non-Toxic
IC50 (HCC1806): 1490 nM

Source: ChEMBL document CHEMBL5380876, “Non-fused imidazole-biphenyl analogs repress triple-negative breast cancer growth by mainly stabilizing the c-MYC G-quadruplex via a multi-site binding mode” (Bioorg Med Chem, 2023)
